# What was measured:
# [1] = target: purified recombinant human GAC (GLS1) (Homo sapiens (Human), UniProt O94925); test: GLS1 Enzymatic Activity Assay (dual-coupled enzymatic assay, resorufin/Amplex UltraRed readout); assay type: biochemical;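 also: glutamate from GAC coupled via glutamate oxidase and peroxidase to resorufin, read as fluorescence (ex 530, em 590 nm) kinetically or at 20 min, four-parameter logistic IC50 fit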
# [2] = tested on: A549 cells; test: Proliferation Assay (A549 viability, Cell Titer Fluor, 72 hours); assay type: cell-based; details: Homo sapiens, A549, 72 h
# In short: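 Cell Titer Fluor fluorescence after 72 h compound treatment (0.5% DMSO, 37 °C, 5% CO2) of A549 cells plated 24 h earlier at 1000/well. Four-parameter logistic fitting gave IC50.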
# Chain of purified recombinant human GAC (GLS1) (O94925 other isoform, or with tags, fused parts or gaps): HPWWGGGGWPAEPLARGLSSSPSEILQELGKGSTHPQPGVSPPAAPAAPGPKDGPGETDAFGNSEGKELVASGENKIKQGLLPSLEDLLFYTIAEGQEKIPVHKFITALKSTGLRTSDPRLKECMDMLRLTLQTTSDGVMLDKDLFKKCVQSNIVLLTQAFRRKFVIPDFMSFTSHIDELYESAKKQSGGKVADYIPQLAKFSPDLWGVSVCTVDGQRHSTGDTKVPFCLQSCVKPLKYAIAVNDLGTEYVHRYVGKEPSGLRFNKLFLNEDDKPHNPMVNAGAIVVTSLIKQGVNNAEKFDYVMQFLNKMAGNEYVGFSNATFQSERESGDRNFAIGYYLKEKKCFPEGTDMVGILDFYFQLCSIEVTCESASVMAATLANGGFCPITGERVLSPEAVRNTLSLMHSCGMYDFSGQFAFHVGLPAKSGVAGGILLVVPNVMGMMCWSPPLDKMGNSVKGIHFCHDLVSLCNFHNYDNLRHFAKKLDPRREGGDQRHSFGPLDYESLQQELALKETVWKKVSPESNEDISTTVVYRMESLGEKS
Compound,IC50 [1] [nM],EC50 [2] [nM]
"O=C(NCc1ccc(C(F)(F)F)cn1)c1cn(CC(F)CCc2nnc(C(=O)NCc3cccc(OC(F)(F)F)c3)s2)nn1 (stereo not shown) [Example 445, 5-{3-fluoro-4-[4-({[5-(trifluoromethyl)pyridin-2-yl]methyl}carbamoyl)-1H-1,2,3-triazol-1-yl]butyl}-N-{[3-(trifluoromethoxy)phenyl]methyl}-1,3,4-thiadiazole-2-carboxamide]",< 100,< 100
"CNC(=O)c1cn(CCCCc2ccc(NC(=O)CN3CCN(c4ccccc4OC(F)(F)F)CC3=O)nn2)nn1 [Example 249, N-methyl-1-(4-(6-(2-(2-oxo-4-(2-(trifluoromethoxy)phenyl)piperazin-1-yl)acetamido)pyridazin-3-yl)butyl)-1H-1,2,3-triazole-4-carboxamide]",< 100,< 100
"O=C(Cc1cc(OC(F)(F)F)ccc1F)Nc1cn(CC(F)CCn2cc(C(=O)NCc3cc(C(F)(F)F)ccn3)nn2)nn1 (stereo not shown) [Example 395, 1-[3-fluoro-4-(4-{2-[2-fluoro-5-(trifluoromethoxy)phenyl]acetamido}-1H-1,2,3-triazol-1-yl)butyl]-N-{[4-(trifluoromethyl)pyridin-2-yl]methyl}-1H-1,2,3-triazole-4-carboxamide]",< 100,< 100
"COCCNC(=O)c1nnc(CCCCn2cc(C(=O)NCc3cccc(C(F)(F)F)c3)nn2)s1 [Example 7, N-(2-methoxyethyl)-5-(4-(4-(3-(trifluoromethyl)benzylcarbamoyl)-1H-1,2,3-triazol-1-yl)butyl)-1,3,4-thiadiazole-2-carboxamide]",100 to 500,100 to 500
"O=C(CN1CC(F)C1)Nc1cn(CC(F)CCn2cc(C(=O)NCc3ncccc3F)nn2)nn1 (stereo not shown) [Example 409, 1-(3-fluoro-4-{4-[2-(3-fluoroazetidin-1-yl)acetamido]-1H-1,2,3-triazol-1-yl}butyl)-N-[(3-fluoropyridin-2-yl)methyl]-1H-1,2,3-triazole-4-carboxamide]",500 to 5000,> 5000
"O=C(NCc1cccc(OC(F)(F)F)c1)c1cn(CCC(F)Cn2cc(C(=O)NCc3cc(C(F)(F)F)ccn3)nn2)nn1 (stereo not shown) [Example 428, 1-{2-fluoro-4-[4-({[3-(trifluoromethoxy)phenyl]methyl}carbamoyl)-1H-1,2,3-triazol-1-yl]butyl}-N-{[4-(trifluoromethyl)pyridin-2-yl]methyl}-1H-1,2,3-triazole-4-carboxamide]",< 100,< 100
"CC(=O)Nc1nnc(CCC(F)Cn2cc(C(=O)NCc3cccc(OC(F)(F)F)c3)nn2)s1 (stereo not shown) [Example 566, 1-(4-(5-acetamido-1,3,4-thiadiazo1-2-yl)-2-fluorobutyl)-N-(3-(trifluoromethoxy)benzyl)-1H-1,2,3-triazole-4-carboxamide]",< 100,100 to 500
"CNC(=O)c1cn(CCCCc2ccc(NC(=O)Cc3cccc(S(C)(=O)=O)c3)nn2)nn1 [Example 543, 1-(4-{6-[2-(3-methanesulfonylphenyl)acetamido]pyridazin-3-yl}butyl)-N-methyl-1H-1,2,3-triazole-4-carboxamide]",< 100,500 to 5000
"C[C@H](NC(=O)c1cn(CCCCn2cc(C(=O)NCc3cc(C(F)(F)F)ccn3)nn2)nn1)c1ccccc1 [Example 99, 1-[4-(4-{[(1S)-1-phenylethyl]carbamoyl}-1H-1,2,3-triazol-1-yl)butyl]-N-{[4-(trifluoromethyl)pyridin-2-yl]methyl}-1H-1,2,3-triazole-4-carboxamide]",500 to 5000,500 to 5000
"O=C(NCCC(F)(F)F)c1cn(CC(F)CCc2nnc(C(=O)NCc3cncc(C(F)(F)F)c3)s2)nn1 (stereo not shown) [Example 502, 5-(3-fluoro-4-{4-[(3,3,3-trifluoropropyl)carbamoyl]-1H-1,2,3-triazol-1-yl}butyl)-N-{[5-(trifluoromethyl)pyridin-3-yl]methyl}-1,3,4-thiadiazole-2-carboxamide]",100 to 500,100 to 500
"O=C(Cc1ccccn1)Nc1cn(CCC(F)Cn2cc(C(=O)NCc3cc(OC(F)(F)F)ccc3F)nn2)nn1 (stereo not shown) [Example 419, 1-(2-fluoro-4-{4-[2-(pyridin-2-yl)acetamido]-1H-1,2,3-triazol-1-yl}butyl)-N-{[2-fluoro-5-(trifluoromethoxy)phenyl]methyl}-1H-1,2,3-triazole-4-carboxamide]",< 100,< 100
"O=C(Cc1cccc(OC(F)(F)F)c1)Nc1cn(CC(F)CCn2cc(C(=O)NCc3ccc(C(F)(F)F)nc3)nn2)nn1 (stereo not shown) [Example 411, 1-[3-fluoro-4-(4-{2-[3-(trifluoromethoxy)phenyl]acetamido}-1H-1,2,3-triazol-1-yl)butyl]-N-{[6-(trifluoromethyl)pyridin-3-yl]methyl}-1H-1,2,3-triazole-4-carboxamide]",< 100,< 100
"O=C(NCc1cn2ccsc2n1)c1cn(CCC(F)Cn2cc(C(=O)NCc3cc(C(F)(F)F)ccn3)nn2)nn1 (stereo not shown) [Example 155, 1-{3-fluoro-4-[4-({[4-(trifluoromethyl)pyridin-2-yl]methyl}carbamoyl)-1H-1,2,3-triazol-1-yl]butyl}-N-{imidazo[2,1-b][1,3]thiazol-6-ylmethyl}-1H-1,2,3-triazole-4-carboxamide]",< 100,500 to 5000
"O=C(NCC1CCCCC1)c1cn(CCC(F)Cn2cc(C(=O)NCc3cc(C(F)(F)F)ccn3)nn2)nn1 (stereo not shown) [Example 456, 1-(4-{4-[(cyclohexylmethyl)carbamoyl]-1H-1,2,3-triazol-1-yl}-2-fluorobutyl)-N-{[4-(trifluoromethyl)pyridin-2-yl]methyl}-1H-1,2,3-triazole-4-carboxamide]",< 100,< 100
"O=C(Cc1cccc(OC(F)(F)F)c1)Nc1nnc(CCC(F)Cn2cc(C(=O)NCc3ccccn3)nn2)s1 (stereo not shown) [Example 533, 1-[2-fluoro-4-(5-{2-[3-(trifluoromethoxy)phenyl]acetamido}-1,3,4-thiadiazol-2-yl)butyl]-N-(pyridin-2-ylmethyl)-1H-1,2,3-triazole-4-carboxamide]",< 100,< 100
"O=C(Cc1cc(Cl)ccc1F)Nc1cn(CCCCn2cc(C(=O)NCc3cc(Cl)ccc3F)nn2)nn1 [Example 415, 1-(4-{4-[2-(5-chloro-2-fluorophenyl)acetamido]-1H-1,2,3-triazol-1-yl}butyl)-N-[(5-chloro-2-fluorophenyl)methyl]-1H-1,2,3-triazole-4-carboxamide]",< 100,< 100
"CNC(=O)c1cn(CC(F)CCc2ccc(NC(=O)Cc3cncc(OC4CC(F)(F)C4)c3)nn2)nn1 (stereo not shown) [Example 245, 1-(4-(6-(2-(5-(3,3-difluorocyclobutoxy)pyridin-3-yl)acetamido)pyridazin-3-yl)-2-fluorobutyl)-N-methyl-1H-1,2,3-triazole-4-carboxamide]",< 100,< 100
"O=C(NCc1cccc(OC(F)(F)F)c1)c1cn(CCC(F)Cn2cc(C(=O)N[C@H](CO)c3ccccc3)nn2)nn1 (stereo partly drawn) [Example 462, 1-{2-fluoro-4-[4-({[3-(trifluoromethoxy)phenyl]methyl}carbamoyl)-1H-1,2,3-triazol-1-yl]butyl}-N-[(1S)-2-hydroxy-1-phenylethyl]-1H-1,2,3-triazole-4-carboxamide]",< 100,100 to 500
"O=C(Cc1ccc(OC(F)(F)F)cc1F)Nc1cn(CCCCn2cc(C(=O)NCc3ccccn3)nn2)nn1 [Example 367, 1-[4-(4-{2-[2-fluoro-4-(trifluoromethoxy)phenyl]acetamido}-1H-1,2,3-triazol-1-yl)butyl]-N-(pyridin-2-ylmethyl)-1H-1,2,3-triazole-4-carboxamide]",< 100,100 to 500
O=C(Cc1cccnc1)Nc1ccc(CCCCc2nnc(C(=O)NCCc3ccccc3)s2)nn1 [Example 27],< 100,< 100
"O=C(Cc1cccc(OC(F)(F)F)c1)Nc1ccc(CCCCc2nnc(C(=O)NCc3ccccn3)s2)nn1 [Example 32, N-(pyridin-2-ylmethyl)-5-[4-(6-{2-[3-(trifluoromethoxy)phenyl]acetamido}pyridazin-3-yl)butyl]-1,3,4-thiadiazole-2-carboxamide]",< 100,< 100
"NC(=O)c1cn(CCCCc2ccc(NC(=O)Cc3cccc(OC(F)(F)F)c3)nn2)nn1 [Example 596, 1-(4-(6-(2-(3-(trifluoromethoxy)phenyl)acetamido)pyridazin-3-yl)butyl)-1H-1,2,3-triazole-4-carboxamide]",< 100,100 to 500
"O=C(NCc1ccccc1)c1cn(CCC(F)Cn2cc(C(=O)NCc3cc(C(F)(F)F)ccn3)nn2)nn1 (stereo not shown) [Example 460, 1-{4-[4-(benzylcarbamoyl)-1H-1,2,3-triazol-1-yl]-2-fluorobutyl}-N-{[4-(trifluoromethyl)pyridin-2-yl]methyl}-1H-1,2,3-triazole-4-carboxamide]",100 to 500,100 to 500
"COCCNC(=O)c1cn(CC(F)CCc2nnc(NC(=O)Cc3cccc(OC(F)(F)F)c3)s2)nn1 (stereo not shown) [Example 532, 1-[2-fluoro-4-(5-{2-[3-(trifluoromethoxy)phenyl]acetamido}-1,3,4-thiadiazol-2-yl)butyl]-N-(2-methoxyethyl)-1H-1,2,3-triazole-4-carboxamide]",< 100,100 to 500
"CNC(=O)c1cn(CCC(F)Cn2cc(C(=O)NCc3cncc(C(F)(F)F)c3)nn2)nn1 (stereo not shown) [Example 151, 1-{3-fluoro-4-[4-({[5-(trifluoromethyl)pyridin-3-1-yl]methyl}carbamoyl)-1H-1,2,3-triazol-1-yl]butyl}-N-methyl-1H-1,2,3-triazole-4-carboxamide]",100 to 500,500 to 5000
"O=C(Cc1ccccn1)Nc1nnc(CC[C@H](F)Cn2cc(C(=O)NCc3cc(C(F)(F)F)ccn3)nn2)s1 [Example 238, (S)-1-(2-fluoro-4-(5-(2-(pyridin-2-yl)acetamido)-1,3,4-thiadiazol-2-yl)butyl)-N-((4-(trifluoromethyl)pyridin-2-yl)methyl)-1H-1,2,3-triazole-4-carboxamide]",< 100,100 to 500

# — US10344025B2, “GLS1 inhibitors for treating disease” (Board of Regents, The University of Texas System, priority 2014, dated 2019)
